The numbers were not newly measured in US12343354B2, “Injection containing p-boronophenylalanine” (Stella Pharma Corporation, priority 2019, dated 2025), which cites them from elsewhere.

The conditions of this series: physiological pH.

`N[C@@H](Cc1ccc(B(O)O)cc1)C(=O)O` [p-Boronophenylalanine, p-boronophenylalanine]: the solubility result is “very poor solubility”.
